Experimental data reported in patent US20220057405A1, “CELLS AND METHODS FOR EVALUATING THE ACTIVITY OF ORGANIC ANION TRANSPORTING POLYPEPTIDE 2A1 (OATP2A1)” (ABSORPTION SYSTEMS LLC, priority 2019, published 2022).
Like-named read-outs stand apart in the source and are kept apart here.

Key:
OATP2A1 [1] = target: T1, OATP2A1 (Homo sapiens, UniProt Q92959); experiment: Cellular uptake assay with fluorescent substrate of OATP2A1 in HEK293-OATP2A1 cells; type: cell-based
Protocol: Key reagents—6-Carboxyfluorescein (6-CF) was purchased from Toronto Research Chemicals (Cat. No. C178325); 5,6-carboxy-SNARF-1 (5,6-Carboxy-seminaphthorhodafluor-1) was obtained from Thermo Fisher Scientific (Cat. No. C1270).
(§1) Assay procedure—HEK293-OATP2A1 cells and the vector control HEK293-VC-Neo cells were plated at 250,000 cells per well on 24 well poly-D-Lysine coated (BioCoat™) plates (Corning) in complete DMEM medium and grown for 48 hrs at 37 C.
(§2) […] For incubations with 6-CF, 1×HBSS pH 5.6 was used without pH adjustment. For the uptake of 5,6-carboxy-SNARF-1, the pH of 1×HBSS was adjusted to 7.4 with Bis-Tris/HCl. After the incubation, the media was aspirated, the cells were washed twice with ice-cold HBSS and lysed with 450 μL of the lysis buffer without the protease inhibitors. Two 150-μL samples from each well of the 24-well plates were taken and transferred into separate wells on black opaque 96-well Opti-plates (PerkinElmer). Fluorescence intensities were measured using λex 483(14) nm and λem 530(30) for 6-CF and λex 576(15) nm and λem 640(10) for 5,6-carboxy-SNARF-1 on a CLARIOstar® multimode microplate reader (BMG LABTECH). 20 μL of the samples used for fluorescence measurement were transferred into clear polystyrene flat-bottom 96-well plates (Thermo Fisher Scientific) and protein concentration was determined.
(§3) Concentrations of the fluorescent substrates of OATP2A1 in cell lysates were determined by measuring fluorescence intensities of the lysates and calculating concentrations of either 6-CF or 5,6-carboxy-SNARF-1 using linear calibration curves obtained from fluorescence intensities of the standard solutions of the fluorescent probes prepared in the same lysis buffer on the same 96-well assay plate. In order to account for differences in cell densities between the wells, protein concentration in the lysates was measured and used for calculating normalized uptake of the fluorescent substrates as follows:
(§4) The IC50 values were calculated from non-linear 4-parameter fit of the % Inhibition values vs. concentration of the inhibitors using GraphPad Prism 5 software. The same software was used for obtaining KM and Vmax values from a non-linear fit of the rate vs. substrate concentration fit into classic Michaelis-Menten equation: […]
Where: • CS is the substrate concentration in cell lysate • CP is the protein concentration in cell lysate • NUTC is the normalized uptake of the substrate in the presence of test article or inhibitor • NUHEK293-VC-Neo is the uninhibited (0.1% DMSO) normalized uptake by vector control cells • NUHEK293-OAM2A1 is the uninhibited (0.1% DMSO) normalized uptake by HEK293-OATP2A1 cells • Vt is the rate of the substrate uptake expressed as Normalized Uptake • Vmax is the calculated maximal rate of the substrate uptake by HEK293-OATP2A1 cells • S is the concentration of the fluorescent substrate of OATP2A1 • KM is the calculated Michaelis constant.

HEK293-VC-Neo cells = experiment: Cellular uptake of fluorescent substrate by vector control cells; type: cell-based, human; conditions: first 30 min of the assay (FIG. 6A, pH 7.5)
Protocol: as §1
as §2, with “Two 150-μL samples from each well of the 24-well plates were taken and transferred into separate wells on black opaque 96-well Opti-plates (PerkinElmer).” left out
as §3, with “In order to account for differences in cell densities between the wells, protein concentration in the lysates was measured and used for calculating normalized uptake of the fluorescent substrates as follows:” left out

OATP2A1 [2] = target: T1, OATP2A1; experiment: OATP2A1 inhibition assay, cellular uptake of 5,6-Carboxy-SNARF with HEK293-OATP2A1 cells; type: cell-based; conditions: HEK293-OATP2A1 cells, 5,6-Carboxy-SNARF substrate, pH 7.4
Protocol: as §1
(§5) Cellular uptake of the fluorescent substrates 6-CF and 5,6-carboxy-SNARF-1 was assessed by incubating the HEK293-OATP2A1 and HEK293-VC-Neo cells with 10 μM 6-CF and 5 μM 5,6-carboxy-SNARF-1 for 15 and 20 min, correspondingly. For incubations with 6-CF, 1×HBSS pH 5.6 was used without pH adjustment. For the uptake of 5,6-carboxy-SNARF-1, the pH of 1×HBSS was adjusted to 7.4 with Bis-Tris/HCl. After the incubation, the media was aspirated, the cells were washed twice with ice-cold HBSS and lysed with 450 μL of the lysis buffer without the protease inhibitors. Two 150-μL samples from each well of the 24-well plates were taken and transferred into separate wells on black opaque 96-well Opti-plates (PerkinElmer). Fluorescence intensities were measured using λex 483(14) nm and λem 530(30) for 6-CF and λex 576(15) nm and λem 640(10) for 5,6-carboxy-SNARF-1 on a CLARIOstar® multimode microplate reader (BMG LABTECH). 20 μL of the samples used for fluorescence measurement were transferred into clear polystyrene flat-bottom 96-well plates (Thermo Fisher Scientific) and protein concentration was determined.
All compounds were acquired from Sigma-Aldrich as solid powders and 10 mM stocks were made either in DMSO or HBSS (see Table 1). Serial dilutions of the compounds were made using 3.162-fold […] dilution factor either with DMSO or HBSS at the concentrations 1,000 higher than the final concentrations in the assay. These 1,000× solutions were further diluted 1:100 with HBSS in 2-mL polypropylene deep 96-well block (VWR) to make 10× working stock solutions of the inhibitors.
HEK293-OATP2A1 and HEK293-VC-Neo cells were cultured. The media was aspirated and 800 μL of HBSS was added to each well followed by the addition of 100 μL of the 10× working stock solutions of the inhibitors. The plates were incubated for 5 min at RT, and the assay was started by the addition of 100 μL of either 100 μM 6-CF or 50 μM 5,6-carboxy-SNARF-1 in HBSS.
as §3
(§6) Using uninhibited normalized uptake values obtained with HEK293-OATP2A1 and HEK293-VC-Neo cells in 0.1% DMSO in HBSS as the high and low controls of the assay, the % Control and % Inhibition values were calculated as follows: […]
as §4

OATP2A1 [3] = target: T1, OATP2A1; conditions: published potencies of the OATP2A1 inhibitors; read-out: IC50, Literature (Kamo et al., J Pharma Sci, 2017); cited from earlier work
OATP2A1 [4] = target: T1, OATP2A1; experiment: OATP2A1 inhibition assay, cellular uptake of 6-CF with HEK293-OATP2A1 cells; type: cell-based; conditions: 6-CF substrate, pH 5.5
Protocol: as §1, §5
All compounds were acquired from Sigma-Aldrich as solid powders and 10 mM stocks were made either in DMSO or HBSS (see Table 1). Serial dilutions of the compounds were made using 3.162-fold […] dilution factor either with DMSO or HBSS at the concentrations 1,000 higher than the final concentrations in the assay. […]
as §3, §6
The IC50 values were calculated from non-linear 4-parameter fit of the % Inhibition values vs. concentration of the inhibitors using GraphPad Prism 5 software. […]

## 5,6-Carboxy-seminaphthorhodafluor-1 [5,6-Carboxy-SNARF]
OATP2A1 [1]; HEK293-OATP2A1 cell line, time-course, pH 7.5 (FIG. 6A)
  S:B in uptake assay: 142
OATP2A1 [1]; HEK293-OATP2A1 cells, first 30 min of the assay (FIG. 6A, pH 7.5)
  initial rate of the uptake: 99.1 pmol/mg/min
OATP2A1 [1]; OATP2A1-mediated uptake in HEK293-OATP2A1 cell line, Michaelis-Menten fit (FIG. 5)
  Km: 29 ± 9 µM
OATP2A1 [1]; OATP2A1 vs. OATP2B1 transporters (FIG. 4A)
  transporter specificity: specific for OATP2A1 vs. OATP2B1
HEK293-VC-Neo cells
  initial rate of the uptake: 0.7 pmol/mg/min

## O=C(O)c1ccc2c(c1)C1(OC2=O)c2ccc(O)cc2Oc2cc(O)ccc21 [Compound 6-CF, 6-Carboxyfluorescein]
OATP2A1 [1]; FIG. 2, vs vector control cells HEK-VC-Neo
  rate of uptake by HEK293-OATP2A1 cell line compared to the control cells: ≥ 230 fold
OATP2A1 [1]; pH 6.5 (FIG. 6B)
  uptake by HEK293-OATP2A1 cell line vs rate of uptake by the control cells: 233 times
OATP2A1 [1]; sentence following the initial rates of FIG. 6A
  uptake by HEK293-OATP2A1 cell line vs rate of uptake by the control cells: more than 1400 times

## CCCCc1nc(Cl)c(CO)n1Cc1ccc(-c2ccccc2-c2nn[nH]n2)cc1 [Losartan]
OATP2A1 [2]
  IC50: 1210 nM
OATP2A1 [3]
  IC50: 1760 nM
OATP2A1 [4]
  IC50: 1280 nM

## CCCc1nc(C(C)(C)O)c(C(=O)O)n1Cc1ccc(-c2ccccc2-c2nnn[nH]2)cc1 [Olmesartan]
OATP2A1 [2]
  IC50: 554 nM
OATP2A1 [3]
  IC50: 970 nM
OATP2A1 [4]
  IC50: 492 nM

## O=C(Nc1cccc2c(=O)cc(-c3nnn[nH]3)oc12)c1ccc(OCCCCc2ccccc2)cc1 [Pranlukast]
OATP2A1 [2]
  IC50: 148 nM
OATP2A1 [3]
  IC50: 550 nM
OATP2A1 [4]
  IC50: 142 nM

## Cc1ccc(C(=O)Nc2ccc(S(=O)(=O)O)c3cc(S(=O)(=O)O)cc(S(=O)(=O)O)c23)cc1NC(=O)c1cccc(NC(=O)Nc2cccc(C(=O)Nc3cc(C(=O)Nc4ccc(S(=O)(=O)O)c5cc(S(=O)(=O)O)cc(S(=O)(=O)O)c45)ccc3C)c2)c1 [Suramin]
OATP2A1 [2]
  IC50: 186 nM
OATP2A1 [3]
  IC50: 170 nM
OATP2A1 [4]
  IC50: 222 nM

## COc1cc(C(=O)NS(=O)(=O)c2ccccc2C)ccc1Cc1cn(C)c2ccc(NC(=O)OC3CCCC3)cc12 [Zafirlukast]
OATP2A1 [2]
  IC50: 1110 nM
OATP2A1 [3]
  IC50: 1600 nM
